The record followed here is BindingDB's records for doi:10.1016/S0960-894X(00)80246-2 (1991).

A short description of the assay: Binding potency against SP receptor in bovine caudate using [3H]- as radioligand.

Molecules are shown by their SMILES.

For the compound `Clc1ccccc1CN[C@H]1C2CCN(CC2)[C@H]1C(c1ccccc1)c1ccccc1`, the IC50 (usually the concentration that inhibits the measured activity by half) was found to be 56 nM.

`c1ccc(CN[C@H]2C3CCN(CC3)[C@H]2C(c2ccccc2)c2ccccc2)cc1` came in with an IC50 of 110 nM. Against the preceding compound, the IC50 is about 2-fold higher.
